Structures are written as SMILES. ≈ marks a conversion by molar mass, not a printed value. Where two headings read alike, the source gives them in different places.

We go through one compound from publication PMC12207910 (European journal of pharmaceutical sciences : official …, 2024).

Assay [1] deals with A. fumigatus (Af-293). The assay can be described thus: microbe, parasite or virus in culture. Type of assay: cell-based. The note with it: Aspergillus fumigatus, read-out: MIC A. fumigatus (Af-293).
Assay [2] has as its system A. fumigatus (Af-293). The assay can be described thus: microbe, parasite or virus in culture. The class given is cell-based, Aspergillus fumigatus. The following applies: Aspergillus fumigatus.
Assay [3] has as its system A. fumigatus (Af-293). The assay can be described thus: Kill kinetics assay. The note with it: MIC and 4×MIC, compared to 3b and 4b. The class given is cell-based, Aspergillus fumigatus.

In the case of `C[C@@H]1[C@H](O)[C@@H](C)/C=C/C=C/C=C/C=C/C=C/C=C/C=C/[C@H](O[C@@H]2O[C@H](C)[C@@H](O)[C@H](N)[C@@H]2O)C[C@@H]2O[C@](O)(C[C@@H](O)C[C@@H](O)[C@H](O)CC[C@@H](O)C[C@@H](O)CC(=O)O[C@H]1C)C[C@H](O)[C@H]2C(=O)O` [Amphotericin B, reference compound], the MIC turned out to be 0.7 µg/mL (≈ 0.758 µM) in the assay with A. fumigatus (Af-293) [1]; 0.7 µg/mL (≈ 0.758 µM) with A. fumigatus (Af-293) [2] (read-out: MIC CaCl2); 0.7 µg/mL (≈ 0.758 µM) with A. fumigatus (Af-293) [2] (read-out: MIC Control); 0.7 µg/mL (≈ 0.758 µM) in the assay on A. fumigatus (Af-293) [2] (read-out: MIC FBS (25%)); 0.7 µg/mL (≈ 0.758 µM) in the assay with A. fumigatus (Af-293) [2] (read-out: MIC KCl); 1.5 µg/mL (≈ 1.62 µM) in the assay with A. fumigatus (Af-293) [2] (read-out: MIC MgCl2). In addition, the MIC in the assay with A. fumigatus (Af-293) [2] (read-out: MIC NH4Cl) and with A. fumigatus (Af-293) [2] (read-out: MIC NaCl) was 0.7 µg/mL (≈ 0.758 µM) each time. The “fungicidal effect in kill kinetics” value with A. fumigatus (Af-293) [3] is listed as “mild fungicidal effect”.
